Assay results taken from ChEMBL document CHEMBL1201862, “PubChem BioAssay data set” (2004).
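1) Cells in 96-well plates. 2) Compound, 48 h, 5 concentrations. 3) Linear interpolation between surrounding doses. 4) Unreached endpoint = highest concentration. At the GI50, growth is halved.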 Active and inactive are the calls of the source. Rule as the data show it: active = GI50 up to about 1.1 µM and inactive = higher.

What was measured:
Assay in all cases: growth of human tumour cells (NCI), 48 h
[1] = system: IGROV-1
[2] = system: SK-MEL-5
[3] = system: HCT-15
[4] = system: UACC-257
[5] = system: NCI-H522
[6] = system: ACHN
[7] = system: OVCAR-4
[8] = system: PC-3
[9] = system: A549
[10] = system: UACC-62
[11] = system: HOP-92
[12] = system: HCC 2998
[13] = system: SK-MEL-28
[14] = system: Malme-3M
[15] = system: SK-OV-3
[16] = system: OVCAR-3
[17] = system: HCT-116
[18] = system: CAKI-1
[19] = system: MCF7
[20] = system: CCRF-CEM
[21] = system: SNB-75
[22] = system: NCI/ADR-RES
[23] = system: MDA-MB-435
[24] = system: LOX IMVI
[25] = system: EKVX
[26] = system: A498
[27] = system: SF-295
[28] = system: HT-29
[29] = system: RXF 393
[30] = system: HOP-62
[31] = system: 786-0
[32] = system: MDA-N
[33] = system: SF-268
[34] = system: RPMI-8226
[35] = system: NCI-H23
[36] = system: OVCAR-5
[37] = system: U-251
[38] = system: K562
[39] = system: NCI-H460
[40] = system: SK-MEL-2
[41] = system: SNB-19
[42] = system: M14
[43] = system: SF-539
[44] = system: UO-31
[45] = system: SW-620
[46] = system: Hs-578T
[47] = system: BT-549
[48] = system: NCI-H226
[49] = system: HL-60
[50] = system: KM12
[51] = system: OVCAR-8
[52] = system: T47D
[53] = system: MDA-MB-231
[54] = system: SN12C
[55] = system: TK-10
[56] = system: SR
[57] = system: DU-145
[58] = system: COLO 205
[59] = system: MOLT-4

N#Cc1ccccc1NC(=O)C(=O)c1c(O)c2ccccc2oc1=O
GI50 [1]: > 100 µM (inactive) | GI50 [2]: > 100 µM (inactive) | GI50 [3]: > 100 µM | GI50 [4]: > 100 µM (inactive) | GI50 [5]: > 100 µM (inactive) | GI50 [6]: > 100 µM (inactive) | GI50 [7]: > 100 µM (inactive) | GI50 [8]: > 100 µM (inactive) | GI50 [9]: > 100 µM (inactive) | GI50 [10]: > 100 µM (inactive) | GI50 [11]: > 100 µM (inactive) | GI50 [12]: > 100 µM (inactive) | GI50 [13]: > 100 µM (inactive) | GI50 [14]: > 100 µM (inactive) | GI50 [15]: > 100 µM (inactive) | GI50 [16]: > 100 µM (inactive) | GI50 [17]: > 100 µM (inactive) | GI50 [18]: > 100 µM (inactive) | GI50 [19]: > 100 µM (inactive) | GI50 [20]: > 100 µM (inactive) | GI50 [21]: > 100 µM (inactive) | GI50 [22]: > 100 µM (inactive) | GI50 [23]: > 100 µM (inactive) | GI50 [24]: > 100 µM (inactive) | GI50 [25]: > 100 µM (inactive) | GI50 [26]: > 100 µM (inactive) | GI50 [27]: > 100 µM (inactive) | GI50 [28]: > 100 µM (inactive) | GI50 [29]: > 100 µM (inactive) | GI50 [30]: > 100 µM (inactive) | GI50 [31]: > 100 µM (inactive) | GI50 [32]: > 100 µM (inactive) | GI50 [33]: > 100 µM (inactive) | GI50 [34]: > 100 µM (inactive) | GI50 [35]: > 100 µM (inactive) | GI50 [36]: > 100 µM (inactive) | GI50 [37]: > 100 µM (inactive) | GI50 [38]: > 100 µM (inactive) | GI50 [39]: > 100 µM (inactive) | GI50 [40]: > 100 µM (inactive) | GI50 [41]: > 100 µM (inactive) | GI50 [42]: > 100 µM (inactive) | GI50 [43]: > 100 µM (inactive) | GI50 [44]: > 100 µM (inactive) | GI50 [45]: > 100 µM (inactive) | GI50 [46]: > 100 µM (inactive) | GI50 [47]: > 100 µM (inactive) | GI50 [48]: > 100 µM (inactive) | GI50 [49]: > 100 µM (inactive) | GI50 [50]: > 100 µM (inactive) | GI50 [51]: > 100 µM (inactive) | GI50 [52]: > 100 µM (inactive) | GI50 [53]: > 100 µM (inactive) | GI50 [54]: > 100 µM (inactive) | GI50 [55]: > 100 µM (inactive)

CC1=CC(=O)/C(=C/NC(=S)c2ccncc2)C(=O)O1
GI50 [1]: 38.7 µM (inactive) | GI50 [2]: > 100 µM (inactive) | GI50 [3]: > 100 µM | GI50 [4]: > 100 µM (inactive) | GI50 [5]: > 100 µM (inactive) | GI50 [6]: > 100 µM (inactive) | GI50 [7]: > 100 µM (inactive) | GI50 [8]: > 100 µM (inactive) | GI50 [9]: > 100 µM (inactive) | GI50 [10]: > 100 µM (inactive) | GI50 [11]: > 100 µM (inactive) | GI50 [12]: > 100 µM (inactive) | GI50 [13]: > 100 µM (inactive) | GI50 [14]: 83.2 µM (inactive) | GI50 [15]: > 100 µM (inactive) | GI50 [16]: > 100 µM (inactive) | GI50 [17]: > 100 µM (inactive) | GI50 [18]: > 100 µM (inactive) | GI50 [19]: > 100 µM (inactive) | GI50 [20]: > 100 µM (inactive) | GI50 [21]: 61.9 µM (inactive) | GI50 [56]: > 100 µM (inactive) | GI50 [22]: > 100 µM (inactive) | GI50 [23]: > 100 µM (inactive) | GI50 [24]: > 100 µM (inactive) | GI50 [25]: 46.7 µM (inactive) | GI50 [26]: > 100 µM (inactive) | GI50 [27]: > 100 µM (inactive) | GI50 [57]: > 100 µM (inactive) | GI50 [28]: > 100 µM (inactive) | GI50 [29]: > 100 µM (inactive) | GI50 [30]: > 100 µM (inactive) | GI50 [31]: > 100 µM (inactive) | GI50 [32]: > 100 µM (inactive) | GI50 [33]: > 100 µM (inactive) | GI50 [35]: > 100 µM (inactive) | GI50 [36]: > 100 µM (inactive) | GI50 [37]: > 100 µM (inactive) | GI50 [39]: > 100 µM (inactive) | GI50 [40]: > 100 µM (inactive) | GI50 [41]: > 100 µM (inactive) | GI50 [42]: > 100 µM (inactive) | GI50 [43]: > 100 µM (inactive) | GI50 [44]: > 100 µM (inactive) | GI50 [45]: > 100 µM (inactive) | GI50 [46]: > 100 µM (inactive) | GI50 [47]: > 100 µM (inactive) | GI50 [48]: 68.1 µM (inactive) | GI50 [58]: > 100 µM (inactive) | GI50 [59]: > 100 µM (inactive) | GI50 [49]: > 100 µM (inactive) | GI50 [50]: > 100 µM (inactive) | GI50 [51]: > 100 µM (inactive) | GI50 [53]: > 100 µM (inactive) | GI50 [54]: > 100 µM (inactive) | GI50 [55]: > 100 µM (inactive)
